The results in this text go back to patent US11034685B2, “Aminopyridine derivatives as TAM family kinase inhibitors” (SignalChem Lifesciences Corporation, priority 2013, dated 2021).

Holding throughout (assay type): biochemical
The target of assay [1] is T1, Recombinant human Tyro3 (455-end) (Homo sapiens, UniProt Q06418).
T1 construct: GST (N); made in house; host or cells: Sf9 insect cells (baculovirus)
T1 sequence (Q06418 455-890 limits assumed): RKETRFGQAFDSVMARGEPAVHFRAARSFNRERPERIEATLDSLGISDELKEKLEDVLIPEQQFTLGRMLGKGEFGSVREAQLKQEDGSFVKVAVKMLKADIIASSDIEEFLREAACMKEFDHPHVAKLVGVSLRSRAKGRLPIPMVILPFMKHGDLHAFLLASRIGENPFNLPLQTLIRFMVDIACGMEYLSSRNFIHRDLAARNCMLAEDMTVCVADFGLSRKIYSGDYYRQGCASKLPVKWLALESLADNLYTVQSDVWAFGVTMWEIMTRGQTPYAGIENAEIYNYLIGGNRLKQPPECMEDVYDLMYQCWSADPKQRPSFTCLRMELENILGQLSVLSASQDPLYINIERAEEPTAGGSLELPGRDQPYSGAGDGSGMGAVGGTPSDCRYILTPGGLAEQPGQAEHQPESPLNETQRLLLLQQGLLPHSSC
The experiment in a line: Kinase enzymatic activity assay ([33P]-ATP phosphate transfer), Tyro3. The note with it: inhibitory activity on Tyro3; class symbols. The procedure, abridged: (§1)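 Kinases were N-terminal GST-tagged constructs expressed in Sf9 cells, with poly(Glu:Tyr 4:1) as substrate. Reactions ran in MOPS buffer pH 7.2 with MgCl2 and [33P]-ATP (250 μM cocktail stock) for 30 min at room temperature. Filter-bound radioactivity gave % inhibition, and IC50 was taken from serial dilutions.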

Assay [2] concerns the target T2, human Mer (578-872) (Homo sapiens, UniProt Q12866).
T2 construct: GST (N); made in house; host or cells: Sf9 insect cells (baculovirus)
T2 sequence (Q12866 578-872): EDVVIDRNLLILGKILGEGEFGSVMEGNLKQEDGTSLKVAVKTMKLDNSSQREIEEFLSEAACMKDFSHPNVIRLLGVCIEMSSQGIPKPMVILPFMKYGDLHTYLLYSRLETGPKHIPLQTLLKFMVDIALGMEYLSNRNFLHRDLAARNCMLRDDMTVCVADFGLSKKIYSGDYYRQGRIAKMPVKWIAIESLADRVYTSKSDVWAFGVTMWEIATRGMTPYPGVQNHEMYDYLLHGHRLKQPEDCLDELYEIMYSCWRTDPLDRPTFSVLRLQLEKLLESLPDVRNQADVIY
In words: Kinase enzymatic activity assay ([33P]-ATP phosphate transfer), Mer. The note with it: inhibitory activity on Mer; class symbols. The procedure, abridged: as §1

For assay [3], the target named is T3, human Axl (473-end) (Homo sapiens, UniProt P30530).
T3 construct: GST (N); made in house; host or cells: Sf9 insect cells (baculovirus)
T3 sequence (P30530 473-894 limits assumed): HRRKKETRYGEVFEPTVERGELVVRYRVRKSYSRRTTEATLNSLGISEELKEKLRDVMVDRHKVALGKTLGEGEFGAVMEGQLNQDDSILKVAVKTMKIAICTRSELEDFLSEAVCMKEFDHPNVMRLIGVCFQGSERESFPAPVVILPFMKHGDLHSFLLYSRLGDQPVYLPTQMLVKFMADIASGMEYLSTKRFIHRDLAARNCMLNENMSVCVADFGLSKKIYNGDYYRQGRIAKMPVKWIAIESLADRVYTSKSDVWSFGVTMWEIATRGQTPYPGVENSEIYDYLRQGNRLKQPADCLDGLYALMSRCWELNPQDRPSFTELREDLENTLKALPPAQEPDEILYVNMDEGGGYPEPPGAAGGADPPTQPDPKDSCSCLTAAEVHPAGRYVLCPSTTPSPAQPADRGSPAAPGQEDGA
In words: Kinase enzymatic activity assay ([33P]-ATP phosphate transfer), Axl. The note with it: inhibitory activity on Axl; class symbols. The procedure, abridged: as §1

With `CN1CCC(n2cc(-c3cnc(N)c(-c4nc(-c5ccccc5)no4)c3)cn2)CC1` [5-(1-(1-methylpiperidin-4-yl)-1H-pyrazol-4-yl)-3-(3-phenyl-1,2,4-oxadiazol-5-yl)pyridin-2-amine], the IC50 in assay [1], in assay [2] and in assay [3] was under 500 nM each time.
With `CN1CCC(n2cc(-c3cnc(N)c(-c4noc(-c5ccccc5)n4)c3)cn2)CC1` [5-(1-(1-methylpiperidin-4-yl)-1H-pyrazol-4-yl)-3-(5-phenyl-1,2,4-oxadiazol-3-yl)pyridin-2-amine], the values for the IC50 in assay [1], in assay [2] and in assay [3] were under 500 nM, 500 to 1000 nM and under 500 nM, respectively.
As to `CN1CCC(n2cc(-c3cnc(N)c(-c4cc(-c5ccccc5)on4)c3)cn2)CC1` [5-(1-(1-methylpiperidin-4-yl)-1H-pyrazol-4-yl)-3-(5-phenylisoxazol-3-yl)pyridin-2-amine], the IC50 in assay [1], in assay [2] and in assay [3] was under 500 nM each time.
In the case of `Nc1ncc(-c2cnn(C3CCNCC3)c2)cc1-c1nnc(-c2nc(C(F)(F)F)cs2)o1` [5-(1-(piperidin-4-yl)-1H-pyrazol-4-yl)-3-(5-(4-(trifluoromethyl)thiazol-2-yl)-1,3,4-oxadiazol-2-yl)pyridin-2-amine], the 50% inhibitory concentration (IC50) in assay [1], in assay [2] and in assay [3] was under 500 nM in each case.
Consider `Nc1ncc(-c2cnn(C3CCNCC3)c2)cc1-c1nnc(-c2cnccn2)o1` [5-(1-(piperidin-4-yl)-1H-pyrazol-4-yl)-3-(5-(pyrazin-2-yl)-1,3,4-oxadiazol-2-yl)pyridin-2-amine], for which the half-maximal inhibitory concentration (IC50) in assay [1] was under 500 nM; in assay [2], 500 to 1000 nM; in assay [3], under 500 nM.
In the case of `Nc1ncc(-c2cnn(C3CCNCC3)c2)cc1-c1nnc(-c2ccccn2)o1` [5-(1-(piperidin-4-yl)-1H-pyrazol-4-yl)-3-(5-(pyridin-2-yl)-1,3,4-oxadiazol-2-yl)pyridin-2-amine], the IC50 in assay [1], in assay [2] and in assay [3] was under 500 nM throughout.
`Nc1ncc(-c2cnn(C3CCNCC3)c2)cc1-c1nnc(-c2cccnc2)o1` [5-(1-(piperidin-4-yl)-1H-pyrazol-4-yl)-3-(5-(pyridin-3-yl)-1,3,4-oxadiazol-2-yl)pyridin-2-amine]: the IC50 in assay [1], in assay [2] and in assay [3] was under 500 nM in each case.
As to `Nc1ncc(-c2cnn(C3CCNCC3)c2)cc1-c1ncc(-c2cccnc2)o1` [5-(1-(piperidin-4-yl)-1H-pyrazol-4-yl)-3-(5-(pyridin-3-yl)oxazol-2-yl)pyridin-2-amine], the IC50 in assay [1], in assay [2] and in assay [3] was under 500 nM in each case.
As for `Nc1ncc(-c2cnn(C3CCNCC3)c2)cc1-c1nnc(-c2nccs2)o1` [5-(1-(piperidin-4-yl)-1H-pyrazol-4-yl)-3-(5-(thiazol-2-yl)-1,3,4-oxadiazol-2-yl)pyridin-2-amine], the IC50 in assay [1], in assay [2] and in assay [3] was under 500 nM throughout.
For the compound `Nc1ncc(-c2cnn(C3CCCCC3)c2)cc1-c1nc(-c2c(Cl)cccc2Cl)no1` [5-(1-cyclohexyl-1H-pyrazol-4-yl)-3-(3-(2,6-dichlorophenyl)-1,2,4-oxadiazol-5-yl)pyridin-2-amine], the IC50 in assay [1] was under 500 nM; in assay [2], 1000 to 10000 nM; in assay [3], 1000 to 10000 nM.
Turning to `Nc1ncc(-c2cnn(C3CCCCC3)c2)cc1-c1nc(-c2ccccc2)no1` [5-(1-cyclohexyl-1H-pyrazol-4-yl)-3-(3-phenyl-1,2,4-oxadiazol-5-yl)pyridin-2-amine], the half-maximal inhibitory concentration (IC50) in assay [1] was 1000 to 10000 nM; in assay [2], over 10000 nM; in assay [3], 1000 to 10000 nM.
`Nc1ncc(-c2cnn(C3CCCCC3)c2)cc1-c1nnc(-c2c(Cl)cccc2Cl)o1` [5-(1-cyclohexyl-1H-pyrazol-4-yl)-3-(5-(2,6-dichlorophenyl)-1,3,4-oxadiazol-2-yl)pyridin-2-amine]: the IC50 in assay [1], in assay [2] and in assay [3] was over 10000 nM in each case.
On to `Nc1ncc(-c2cnn(C3CCCCC3)c2)cc1-c1noc(-c2ccccc2)n1` [5-(1-cyclohexyl-1H-pyrazol-4-yl)-3-(5-phenyl-1,2,4-oxadiazol-3-yl)pyridin-2-amine], for which the IC50 in assay [1], in assay [2] and in assay [3] was over 10000 nM each time.
Consider `Nc1ncc(-c2cnn(C3CCCCC3)c2)cc1-c1nnc(-c2ccccc2)o1` [5-(1-cyclohexyl-1H-pyrazol-4-yl)-3-(5-phenyl-1,3,4-oxadiazol-2-yl)pyridin-2-amine], for which the IC50 in assay [1] is 1000 to 10000 nM; in assay [2] it was over 10000 nM; in assay [3], 1000 to 10000 nM.
Regarding `Nc1ncc(-c2cnn(C3CCCCC3)c2)cc1-c1ccc(-c2ccccc2)o1` [5-(1-cyclohexyl-1H-pyrazol-4-yl)-3-(5-phenylfuran-2-yl)pyridin-2-amine], the half-maximal inhibitory concentration (IC50) in assay [1], in assay [2] and in assay [3] was 1000 to 10000 nM each time.
As for `Nc1ncc(-c2cnn(C3CCCCC3)c2)cc1-c1cc(-c2ccccc2)on1` [5-(1-cyclohexyl-1H-pyrazol-4-yl)-3-(5-phenylisoxazol-3-yl)pyridin-2-amine], the IC50 in assay [1], in assay [2] and in assay [3] was 1000 to 10000 nM each time.
For the compound `Nc1ncc(-c2cnn(C3CCCCC3)c2)cc1-c1ncc(-c2ccccc2)o1` [5-(1-cyclohexyl-1H-pyrazol-4-yl)-3-(5-phenyloxazol-2-yl)pyridin-2-amine], the IC50 in assay [1] is 1000 to 10000 nM; in assay [2], over 10000 nM; in assay [3], 1000 to 10000 nM.
Turning to `Nc1ncc(-c2cnn(C3CCN(C(=O)C4CC4)CC3)c2)cc1-c1nc(-c2ccccc2)no1` [(4-(4-(6-amino-5-(3-phenyl-1,2,4-oxadiazol-5-yl)pyridin-3-yl)-1H-pyrazol-1-yl)piperidin-1-yl)(cyclopropyl)methanone], the IC50 in assay [1], in assay [2] and in assay [3] was 1000 to 10000 nM in each case.
Take `Nc1ncc(-c2cnn(C3CCN(C(=O)c4ccccc4)CC3)c2)cc1-c1nc(-c2ccccc2)no1` [(4-(4-(6-amino-5-(3-phenyl-1,2,4-oxadiazol-5-yl)pyridin-3-yl)-1H-pyrazol-1-yl)piperidin-1-yl)(phenyl)methanone]: the IC50 in assay [1], in assay [2] and in assay [3] was 1000 to 10000 nM each time.
Take `Nc1ncc(-c2cnn(C3CCN(C(=O)C4CC4)CC3)c2)cc1-c1nnc(-c2c(Cl)cccc2Cl)o1` [(4-(4-(6-amino-5-(5-(2,6-dichlorophenyl)-1,3,4-oxadiazol-2-yl)pyridin-3-yl)-1H-pyrazol-1-yl)piperidin-1-yl)(cyclopropyl)methanone]: the concentration for half-maximal inhibition (IC50) in assay [1] was under 500 nM; in assay [2] it was 1000 to 10000 nM; in assay [3], under 500 nM.
As for `Nc1ncc(-c2cnn(C3CCN(C(=O)c4ccccc4)CC3)c2)cc1-c1nnc(-c2c(Cl)cccc2Cl)o1` [(4-(4-(6-amino-5-(5-(2,6-dichlorophenyl)-1,3,4-oxadiazol-2-yl)pyridin-3-yl)-1H-pyrazol-1-yl)piperidin-1-yl)(phenyl)methanone], the half-inhibitory concentration (IC50) in assay [1], in assay [2] and in assay [3] was under 500 nM in each case.
As to `Nc1ncc(-c2cnn(C3CCN(C(=O)c4ccc(F)cc4)CC3)c2)cc1-c1ncc(-c2cccc(Cl)c2)o1` [(4-(4-(6-amino-5-(5-(3-chlorophenyl)oxazol-2-yl)pyridin-3-yl)-1H-pyrazol-1-yl)piperidin-1-yl)(4-fluorophenyl)methanone], the IC50 in assay [1] was under 500 nM; in assay [2], 1000 to 10000 nM; in assay [3] it was under 500 nM.
Consider `Nc1ncc(-c2cnn(C3CCN(C(=O)C4CC4)CC3)c2)cc1-c1ncc(-c2cccc(Cl)c2)o1` [(4-(4-(6-amino-5-(5-(3-chlorophenyl)oxazol-2-yl)pyridin-3-yl)-1H-pyrazol-1-yl)piperidin-1-yl)(cyclopropyl)methanone], for which the half-inhibitory concentration (IC50) in assay [1] was 500 to 1000 nM; in assay [2], 1000 to 10000 nM; in assay [3], under 500 nM.
